Molecules are shown by their SMILES. pIC50: −log10 of the molar value.

The assay addresses T1, G9a (Homo sapiens, UniProt Q96KQ7).
T1 sequence (Q96KQ7 1-1210): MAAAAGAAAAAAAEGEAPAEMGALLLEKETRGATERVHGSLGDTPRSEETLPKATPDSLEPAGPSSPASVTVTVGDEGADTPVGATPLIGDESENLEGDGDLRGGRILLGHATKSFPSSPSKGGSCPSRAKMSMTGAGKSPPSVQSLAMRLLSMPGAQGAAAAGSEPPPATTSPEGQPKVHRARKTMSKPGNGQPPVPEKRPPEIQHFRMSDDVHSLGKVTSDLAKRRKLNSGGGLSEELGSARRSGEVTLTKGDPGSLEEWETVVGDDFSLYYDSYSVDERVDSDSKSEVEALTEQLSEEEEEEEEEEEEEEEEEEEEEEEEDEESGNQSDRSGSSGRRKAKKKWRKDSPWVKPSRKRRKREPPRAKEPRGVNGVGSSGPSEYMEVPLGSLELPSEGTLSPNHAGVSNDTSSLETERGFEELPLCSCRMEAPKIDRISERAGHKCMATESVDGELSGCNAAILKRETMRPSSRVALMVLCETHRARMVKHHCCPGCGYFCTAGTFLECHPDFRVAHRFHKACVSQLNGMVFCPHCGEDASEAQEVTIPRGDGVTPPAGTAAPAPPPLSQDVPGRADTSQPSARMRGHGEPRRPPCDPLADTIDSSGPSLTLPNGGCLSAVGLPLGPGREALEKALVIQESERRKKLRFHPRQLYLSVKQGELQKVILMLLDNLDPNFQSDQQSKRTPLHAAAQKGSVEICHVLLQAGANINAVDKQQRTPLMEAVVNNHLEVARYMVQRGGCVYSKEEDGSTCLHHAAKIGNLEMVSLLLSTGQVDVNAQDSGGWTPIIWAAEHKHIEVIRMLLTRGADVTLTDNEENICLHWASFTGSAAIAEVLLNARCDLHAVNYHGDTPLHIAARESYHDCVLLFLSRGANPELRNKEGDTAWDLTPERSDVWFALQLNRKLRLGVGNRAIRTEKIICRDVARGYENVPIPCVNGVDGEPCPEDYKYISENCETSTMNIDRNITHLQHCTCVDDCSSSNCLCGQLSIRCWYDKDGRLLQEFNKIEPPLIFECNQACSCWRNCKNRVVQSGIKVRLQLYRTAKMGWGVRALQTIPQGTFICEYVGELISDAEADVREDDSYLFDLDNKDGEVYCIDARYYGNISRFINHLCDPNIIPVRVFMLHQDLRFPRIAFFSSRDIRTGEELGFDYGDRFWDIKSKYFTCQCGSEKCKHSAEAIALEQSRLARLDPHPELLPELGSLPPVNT
Nature of the assay: G9a AlphaLISA enzymatic activity assay. The class given is biochemical. To be noted: negative log of IC50 in molar, 0.15 nM G9a, 15 uM S-adenosyl-methionine, 100 nM biotinylated histone 3 peptide (1-21). The text has this: The G9a AlphaLISA assay was used to detect the methyl modifications of a biotinylated histone H3 peptide by the compounds. These modifications are done by the histone methyl transferase activity of the G9a enzyme. The assay consists of reading a chemiluminescent signal at 615 nm; this signal is generated by a laser excitation at 680 nm that transfers a reactive singlet oxygen between the donor beads and acceptor beads. Donor beads are streptavidin conjugated and bind to the biotin on the peptide. Acceptor beads are conjugated with an antibody that recognizes the specific G9a methyl mark on the peptide. If there is a methyl mark on the peptide, the acceptor beads will bind to the peptide. Upon binding, the acceptor beads will be in close proximity (<200 nm) of the donor beads and when the donor beads are excited, the transfer of the oxygen can occur and a strong signal will be generated. If there is no methyl mark, the interaction between beads will not occur and signal will be at background levels.
For the assay, the following buffer was used to set up reactions: 50 mM Tris-HCl pH9, 50 mM NaCl, 0.01% Tween-20 and 1 mM DTT (added fresh prior to starting the reactions). […] The reaction is incubated at rt for 1 hour and subsequently quenched by the addition of the acceptor beads (anti-H3k9me2 AlphaLISA acceptor beads, PerkinElmer #AL117) at a final concentration of 20 ug/mL. The acceptor beads are incubated for 1 hour. After 1 hour, the donor beads are added at a final concentration of 20 ug/mL (Alpha Streptavidin donor beads, PerkinElmer #6760002). Donor beads are incubated for 0.5 hours. Both donor and acceptor beads are resuspended in AlphaLISA 5X Epigenetics Buffer 1 Kit (PerkinElmer #AL008) prior to addition to the reaction. All manipulations and incubations with the donor and acceptor beads are done in subdued light. Signal is detected in an EnVision plate reader in Alpha mode. See ACS Med Chem Lett. 2014; 5(2):205-9.
Percent inhibition was calculated for each compound dilution and the concentration that produced 50% inhibition was calculated. This value is presented as the pIC50, which is the negative log of the IC50 value in molar.
For orientation: In Alpha technology, singlet oxygen from a donor bead excites a nearby acceptor bead.

Compound `CCOCCNc1c2c(nc3cc(OCCCN(C)CCF)c(OC)cc13)CCC2` [Example 57, N-(2-ethoxyethyl)-6-{3-[(2-fluoroethyl)(methyl)amino]propoxy}-7-methoxy-1H,2H,3H-cyclopenta[b]quinolin-9-amine] had a negative logarithm of the IC50 (pIC50) of 5.83.

`CCN(CCCOc1cc2nc3c(c(NC)c2cc1OC)CCC3)CCOC` [Example 58, 6-{3-[ethyl(2-methoxyethyl)amino]propoxy}-7-methoxy-N-methyl-1H,2H,3H-cyclopenta[b]quinolin-9-amine] had a pIC50 of 5.56.

In turn, `CNc1c2c(nc3cc(OCCCN)c(OC)cc13)CCC2` [Example 61, 6-(3-aminopropoxy)-7-methoxy-N-methyl-1H,2H,3H-cyclopenta[b]quinolin-9-amine] gave a pIC50 of 6.27.

Take `CNc1c2c(nc3cc(OCCCNS(C)(=O)=O)c(OC)cc13)CCC2` [Example 62, N-(3-{[7-methoxy-9-(methylamino)-1H,2H,3H-cyclopenta[b]quinolin-6-yl]oxy}propyl)methanesulfonamide]: the pIC50 is 6.03.

As to `COc1cc2c(NCC3CC3)c3c(nc2cc1OCCOCCN(C)C)CCC3` [Example 63, N-(cyclopropylmethyl)-6-{2-[2-(dimethylamino)ethoxy]ethoxy}-7-methoxy-1H,2H,3H-cyclopenta[b]quinolin-9-amine], the negative logarithm of the IC50 (pIC50) was 7.74.

`CNc1c2c(nc3cc(OCCC(C)N4CCCC4)c(OC)cc13)CCC2` (stereo not drawn) [Example 64, 7-methoxy-N-methyl-6-[3-(pyrrolidin-1-yl)butoxy]-1H,2H,3H-cyclopenta[b]quinolin-9-amine] showed a pIC50 of 6.90.

Regarding `CNc1c2c(nc3cc(OC(C)CCN4CCCC4)c(OC)cc13)CCC2` (stereo not drawn) [Example 65, 7-methoxy-N-methyl-6-{[4-(pyrrolidin-1-yl)butan-2-yl]oxy}-1H,2H,3H-cyclopenta[b]quinolin-9-amine], the pIC50 was 7.14.

As for `CCN(CC)CCOCCOc1cc2nc3c(c(NC(C)C)c2cc1OC)CCC3` [Example 66, 6-{2-[2-(diethylamino)ethoxy]ethoxy}-7-methoxy-N-(propan-2-yl)-1H,2H,3H-cyclopenta[b]quinolin-9-amine], the negative logarithm of the IC50 (pIC50) was 6.36.

Regarding `COc1cc2c(NCC3CNC3)c3c(nc2cc1OCCCN1CCCC1)CCC3` [Example 67, N-[(azetidin-3-yl)methyl]-7-methoxy-6-[3-(pyrrolidin-1-yl)propoxy]-1H,2H,3H-cyclopenta[b]quinolin-9-amine], the negative-log IC50 (pIC50) was 8.87.

Take `COc1cc2c(NCC3CC3)c3c(nc2cc1OCC1(CN2CCCC2)COC1)CCC3` [Example 68, N-(cyclopropylmethyl)-7-methoxy-6-({3-[(pyrrolidin-1-yl)methyl]oxetan-3-yl}methoxy)-1H,2H,3H-cyclopenta[b]quinolin-9-amine]: the pIC50 was 5.81.

`CNc1c2c(nc3cc(OCCCN4C5CCCC4CC5)c(OC)cc13)CCC2` [Example 69, 6-(3-{8-azabicyclo[3.2.1]octan-8-yl}propoxy)-7-methoxy-N-methyl-1H,2H,3H-cyclopenta[b]quinolin-9-amine] showed a pIC50 of 5.57.

`COc1cc2c(NC3CCN(C(C)C)CC3)c3c(nc2cc1OCCCN(C)C)CCC3` [Example 70, N-{6-[3-(dimethylamino)propoxy]-7-methoxy-1H,2H,3H-cyclopenta[b]quinolin-9-yl}-1-(propan-2-yl)piperidin-4-amine] had a pIC50 of 8.31.

In the case of `CNc1c2c(nc3cc(OCCCN(C)C)c(OC)cc13)CCC2` [Example 71, 6-[3-(dimethylamino)propoxy]-7-methoxy-N-methyl-1H,2H,3H-cyclopenta[b]quinolin-9-amine], the pIC50 is 7.39.

As to `COc1cc2c(NCC3CC3)c3c(nc2cc1OCCCNS(N)(=O)=O)CCC3` [Example 72, N-[3-({9-[(cyclopropylmethyl)amino]-7-methoxy-1H,2H,3H-cyclopenta[b]quinolin-6-yl}oxy)propyl]aminosulfonamide], the pIC50 is 5.71.

As to `COc1cc2c(NC3CCCNC3)c3c(nc2cc1OCCCN(C)C)CCC3` (stereo not drawn) [Example 73, N-{6-[3-(dimethylamino)propoxy]-7-methoxy-1H,2H,3H-cyclopenta[b]quinolin-9-yl}piperidin-3-amine], the pIC50 was 8.84.

Regarding `COc1cc2c(NCC3CNC3)c3c(nc2cc1OCCCN1CC2CC(C2)C1)CCC3` [Example 74, 6-(3-{3-azabicyclo[3.1.1]heptan-3-yl}propoxy)-N-[(azetidin-3-yl)methyl]-7-methoxy-1H,2H,3H-cyclopenta[b]quinolin-9-amine], the pIC50 is 8.08.

On to `CCNc1c2c(nc3cc(OCCCN4CC[C@@H](OC)C4)c(OC)cc13)CCC2` [Example 75, N-ethyl-7-methoxy-6-{3-[(3R)-3-methoxypyrrolidin-1-yl]propoxy}-1H,2H,3H-cyclopenta[b]quinolin-9-amine], for which the pIC50 is 7.28.

As for `COc1cc2c(NC3CCN(C(C)C)CC3)c3c(nc2cc1OCCCN1CC[C@@H](OC)C1)CCC3` [Example 76, N-(7-methoxy-6-{3-[(3R)-3-methoxypyrrolidin-1-yl]propoxy}-1H,2H,3H-cyclopenta[b]quinolin-9-yl)-1-(propan-2-yl)piperidin-4-amine], the negative logarithm of the IC50 (pIC50) was 8.19.

As usually defined, the pIC50 is the negative decadic logarithm of the IC50, by convention in mol/L. Higher therefore signals a small IC50.

(Values after US11584734B2, “Tricyclic compounds as histone methyltransferase inhibitors” (GLOBAL BLOOD THERAPEUTICS, INC., priority 2017, dated 2023).)
